# Values of other authors as cited in US20080188457A1, “Modulation of Neurogenesis with Biguanides and GSK3-beta Agents” (BrainCells, Inc., priority 2007, published 2008).
# Tests used:
# mGluR2 = mGluR2 (Homo sapiens, UniProt Q14416)
# mGluR3 = mGluR3 (Homo sapiens, UniProt Q14832)
# [1] = tested on: Group I or Group III receptors; conditions: at sub-mM concentrations
# [2] = tested on: KA, AMPA, and NMDA iGlu receptors
# human mGlu3 receptor = human mGlu3 receptor (Homo sapiens, UniProt Q14832); conditions: in vitro; low nanomolar range
# human mGlu2 receptor = human mGlu2 receptor (Homo sapiens, UniProt Q14416); conditions: in vitro; low nanomolar range
# gluconeogenesis = conditions: person with type 2 diabetes
# mGluR3, sequence (Q14832 23-879): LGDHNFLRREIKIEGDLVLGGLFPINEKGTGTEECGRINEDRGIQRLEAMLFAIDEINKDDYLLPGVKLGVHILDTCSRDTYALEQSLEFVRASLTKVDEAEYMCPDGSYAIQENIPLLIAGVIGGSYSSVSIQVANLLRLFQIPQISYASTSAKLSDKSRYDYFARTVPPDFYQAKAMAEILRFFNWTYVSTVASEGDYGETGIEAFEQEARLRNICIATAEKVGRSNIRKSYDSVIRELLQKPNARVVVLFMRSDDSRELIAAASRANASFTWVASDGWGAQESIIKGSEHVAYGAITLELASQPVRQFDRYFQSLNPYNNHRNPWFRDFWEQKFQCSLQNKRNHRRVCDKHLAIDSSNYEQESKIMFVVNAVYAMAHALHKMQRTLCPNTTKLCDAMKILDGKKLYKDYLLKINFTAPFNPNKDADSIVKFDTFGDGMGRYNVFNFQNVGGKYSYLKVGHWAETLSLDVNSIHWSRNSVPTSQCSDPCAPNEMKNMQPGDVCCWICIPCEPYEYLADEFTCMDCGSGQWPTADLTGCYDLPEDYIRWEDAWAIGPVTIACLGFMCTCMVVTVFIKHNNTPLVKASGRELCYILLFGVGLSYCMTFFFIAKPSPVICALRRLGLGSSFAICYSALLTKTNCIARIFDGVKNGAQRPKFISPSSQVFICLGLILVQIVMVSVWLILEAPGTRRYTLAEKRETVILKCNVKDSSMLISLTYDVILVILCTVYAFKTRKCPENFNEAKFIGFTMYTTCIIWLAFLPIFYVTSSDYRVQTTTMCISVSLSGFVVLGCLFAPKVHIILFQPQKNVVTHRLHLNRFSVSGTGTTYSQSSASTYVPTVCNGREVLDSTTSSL
# human mGlu3 receptor, sequence (Q14832 23-879): as above
# mGluR2, sequence (Q14416 19-872): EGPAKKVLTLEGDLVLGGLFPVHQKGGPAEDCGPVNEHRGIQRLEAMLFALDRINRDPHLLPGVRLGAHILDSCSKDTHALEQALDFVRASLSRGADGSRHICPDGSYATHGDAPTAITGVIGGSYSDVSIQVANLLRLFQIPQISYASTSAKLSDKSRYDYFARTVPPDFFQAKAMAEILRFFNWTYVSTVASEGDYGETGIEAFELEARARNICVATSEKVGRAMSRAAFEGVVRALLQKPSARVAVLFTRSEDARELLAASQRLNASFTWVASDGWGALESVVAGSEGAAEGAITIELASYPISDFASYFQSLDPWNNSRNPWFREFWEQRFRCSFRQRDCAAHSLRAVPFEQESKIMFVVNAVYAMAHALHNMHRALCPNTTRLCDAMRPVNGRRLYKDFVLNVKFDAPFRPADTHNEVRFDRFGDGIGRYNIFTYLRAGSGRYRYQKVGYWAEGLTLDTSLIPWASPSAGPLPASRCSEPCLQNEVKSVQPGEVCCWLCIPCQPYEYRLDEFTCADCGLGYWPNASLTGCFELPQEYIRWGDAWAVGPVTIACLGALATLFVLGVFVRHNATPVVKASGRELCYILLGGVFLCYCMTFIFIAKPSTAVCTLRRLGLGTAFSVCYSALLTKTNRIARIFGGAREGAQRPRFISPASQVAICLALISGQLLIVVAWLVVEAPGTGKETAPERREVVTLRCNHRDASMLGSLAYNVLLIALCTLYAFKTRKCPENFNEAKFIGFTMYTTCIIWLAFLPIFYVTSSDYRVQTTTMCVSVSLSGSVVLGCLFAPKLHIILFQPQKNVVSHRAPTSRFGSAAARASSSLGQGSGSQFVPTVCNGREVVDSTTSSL
# human mGlu2 receptor, sequence (Q14416 19-872): as above
smiles,measurement,setting,value
"NC1(C(=O)O)CCc2cc(P(=O)(O)O)ccc21 (racemic) [APICA, (RS)-1-amino-5-phosphonoindan-1-carboxylic acid]",IC50,mGluR2,~30 µM
same,IC50,mGluR3,~30 µM
same,activity against Group I or Group III receptors,[1],no appreciable activity
"N[C@](CC1c2ccccc2Oc2ccccc21)(C(=O)O)[C@H]1C[C@@H]1C(=O)O [LY341495, (2S)-2-amino-2-(1S,2S-2-carboxycycloprop-1-yl)-3-(xanth-9-yl) propanoic acid]","activity against KA, AMPA, and NMDA iGlu receptors",[2],substantially inactive
"N[C@@]1(C(=O)O)CO[C@H]2[C@H](C(=O)O)[C@H]21 [LY379268, (−)-2-Oxa-4-aminobicyclohexane-4,6-dicarboxylic acid]",EC50,human mGlu3 receptor,< 10 nM
same,EC50,human mGlu2 receptor,< 10 nM
"CN(C)C(=N)NC(=N)N [metformin, 1,1-Dimethylbiguanide]",reduction of the rate of gluconeogenesis,gluconeogenesis,over one third
